Experimental data as given in US10280179B2, “Spiroquinoxaline derivatives as inhibitors of non-apoptotic regulated cell-death” (Helmholtz Zentrum Munchen—Deutches Forschungszentrum Fur …, priority 2013, dated 2019).
Like-named read-outs stand apart in the source and are kept apart here.

What was measured:
Type in all cases: cell-based
[1] = tested on: human neuroblastoma cell line SH-SY5Y; experiment: Inhibition of BSO-induced non-apoptotic cell death (Example B.1); details: SH-SY5Y cells, 72 hours
Excerpt: Inhibition of BSO-Induced Non-Apoptotic Cell Death by Compounds Disclosed Herein
L-Buthionine sulfoximine (BSO) is a well-known glutathione (GSH) depletory, which inhibits gamma-glutamyl-cysteine-synthetase, the enzyme catalyzing the rate-limiting step in GSH biosynthesis. The human neuroblastoma cell line SH-SY5Y is sensitive to BSO-induced intracellular glutathione depletion, which causes high levels of reactive oxygen species (ROS) and cellular stress mimicking cellular conditions following ischemia (cf., e.g., Yamada et al., Neurochem. Int. 59:1003-9 (2011)).
Compounds disclosed herein were evaluated for their ability to promote cell survival upon administration of a lethal dose of BSO to cell-culture medium. Briefly, SH-SY5Y cells (ATCC® CRL-2266™) were propagated in DMEM supplemented with 10% FBS/1% Penicillin-Streptomycin, and then seeded onto 96-well plates at a concentration of 750 cells/well in 100 μL of media, to which BSO (Sigma Aldrich) was added (to a final concentration of 50 μM) together with increasing concentrations of the compound to be tested, and the plates incubated at 37° C./5% CO2 for 72 hours. Compound dilutions (0.5 pM to 100 μM) were prepared from 10 mM stocks dissolved in DMSO and diluted in media. Cells treated with BSO alone were used as negative control and alpha-Tocopherol (Sigma Aldrich) was used as positive control. Compound concentrations were tested in triplicate. After incubation, cell survival was detected using the live/dead cell assay AquaBluer™ (MultiTarget Pharmaceuticals) and quantified using a fluorescence plate reader (excitation filter: 530-560 nm/emission filter: 590 nm) (SpectraMax M4; Molecular Devices). Fluorescence data so obtained was normalised to the percentage of surviving cells and IC50 values calculated using the GraphPad Prism (GraphPad Software, Inc) software package.

[2] = Cellular toxicity, same assay as Example B.4 without TAM (Example B.5); details: mouse; Pfa1 cells without TAM; read-out: TC50 (the source's name)
Excerpt: Cellular Toxicity of Compounds of the Invention
An estimate of the toxicity for compounds of the invention was obtained by using the same assay as described in Example B.4, but without the addition of TAM. […] Such TC50 values obtained for certain compounds disclosed herein, together with an approximate therapeutic window (estimated by dividing each TC50 by the corresponding IC50 determined from example B.4) are shown in Table 3.

[3] = tested on: Pfa1 cells; experiment: Inhibition of non-apoptotic cell death after tamoxifen-induced GPx4 knockout in a recombinant cell line (Example B.4); details: Mus musculus, read-out: Pfa1/TAM IC50
Excerpt: Inhibition of Non-Apoptotic Cell-Death by Compounds Disclosed Herein Using a Recombinant Cell Line
To combat high intracellular ROS levels, mammalian cells have evolved an intricate network of ROS scavenging in cells, in which the thioredoxin and glutathione (GSH) dependent systems prevail. […] Knockout of GPx4 in neurons causes massive neurodegeneration in cortical, cerebellar and hippocampal neurons underscoring the high relevance of ROS-induced cell death signaling in the brain. Briefly, immortalised fibroblasts from these mice were made to contain tamoxifen-inducible CreERT2, which catalyzes the functional ablation of both copies of GPx4 and resulting in a complete knockout of GPx4, a massive ROS burst, and cell death in cell culture. These cells (Pfa1 cells) were used to characterize compounds of the present invention, whereby tamoxifen (TAM) was given on day 0 along with the compound under test, and 72 hours later cell survival was evaluated using AlamarBlue.

[4] = tested on: mouse hippocampal cell line (Ht22); experiment: Inhibition of glutamate-induced non-apoptotic cell death (Example B.2); details: HT-22, Ht22 cells
Excerpt: Inhibition of Glutamate-Induced Non-Apoptotic Cell Death by Compounds of the Present Invention
Glutamate toxicity is conferred on cells from the mouse hippocampal cell line (Ht22) by inhibition of the cysteine/glutamate antiporter, System xc-, leading to impaired cysteine uptake and subsequent GSH depletion. This model is frequently used for mimicking glutathione depletion following oxidative stress in stroke, brain trauma and other neurodegenerative diseases and cellular conditions following ischemia (for example: van Leyen et al, J. Neurochem. 92:824-30 (2005)).
Compounds disclosed herein were evaluated for their ability to promote cell survival upon administration of a lethal dose of glutamate (GLU) to the cell-culture medium.
Briefly, Ht22 cells (ATCC) were propagated DMEM supplemented with 10% FBS/1% Penicillin-Streptomycin, and then seeded onto 96-well plates at a concentration of 2,000 cells/well in 100 μL of MEDIA, simultaneously with glutamate (Sigma Aldrich) to a final concentration of 5 mM, together with increasing concentrations of the compound to be tested (0.5 pM to 100 μM), and the plates incubated at 37° C./5% CO2 for 72 hours. Compound dilutions were prepared from 10 mM stocks dissolved in DMSO and diluted in media. Cells treated with glutamate alone were used as negative control and alpha-tocopherol (Sigma Aldrich) was used as positive control. Compound concentrations were tested in triplicate. After incubation, cell survival was detected and quantified as described in Example B.1.

[5] = 50 μM BSO, read-out: SH-SY5Y/BSO IC50
[6] = glutamate-induced cell death, read-out: Ht22/GLU

Row | Structure (SMILES) | IC50 [1, 5] [nM] | CC50 [2] [nM] | IC50 [3] [nM] | IC50 [4, 6] [nM] | IC50 ([1]; BSO 50 μM, cell survival (AquaBluer), read-out: SH-SY5Y/BSO (Example B.1) IC50) [nM] | IC50 ([4]; glutamate 5 mM, 72 hours, cell survival, read-out: Ht22/GLU (Example B.2) IC50) [nM]
1 | Clc1cccc(CNC2=Nc3cc4c(cc3NC23CCCCC3)OCCO4)c1 [C-227] | < 500 | 20000 to 50000 | < 50 | < 1000 |  | 
2 | CC1CC2(CCN1)Nc1ccccc1N=C2NCc1ccccc1 (centres unmarked) [N-240] | < 100 | 10000 to 20000 | < 500 | < 500 |  | 
3 | Fc1cc2c(cc1F)NC1(CCNCC1)C(NCc1cccc(Cl)c1)=N2 [N-117] | < 10 | 1000 to 2000 | < 50 | < 50 |  | 
4 | Cc1cc(C)cc(CNC2=Nc3cc(C)c(C)cc3NC23CCNCC3)c1 [N-262] | < 20 | 500 to 1000 | < 50 | < 50 |  | 
5 | O=S1(=O)CCC2(CC1)Nc1ccccc1N=C2NCc1ccccc1 [O/S-363] | < 2000 | 10000 to 20000 | < 2000 | < 5000 |  | 
6 | Clc1ccc(CNC2=Nc3ccccc3NC23CCCCC3)cc1Cl [C-228] | < 50 | 20000 to 50000 | < 50 | < 500 |  | 
7 | CN1CCC2(CC1)Nc1ccccc1N=C2NCc1ccccc1 [N-204] | < 50 | 20000 to 50000 | < 500 | < 500 |  | 
8 | c1ccc(CNC2=Nc3ccccc3NC23CCOCC3)cc1 [O/S-337] | < 500 | 50000 to 100000 | < 5000 | < 5000 |  | 
9 | Cc1cc2c(cc1C)NC1(CCNCC1)C(NCc1cccc(F)c1)=N2 [N-257] | < 20 | 1000 to 2000 | < 100 | < 100 |  | 
10 | Clc1cccc(CNC2=Nc3ccccc3NC23CCSCC3)c1 [O/S-168] | < 100 | 20000 to 50000 | < 200 | < 500 |  | 
11 | Fc1ccc(CNC2=Nc3ccccc3NC23CCOCC3)cc1 [O/S-6] | < 500 | 50000 to 100000 | < 1000 | < 500 | 68.3 | 218
12 | FC1(F)Oc2cc3c(cc2O1)NC1(CCCCC1)C(NCc1ccccc1)=N3 [C-256] | < 50 | 20000 to 50000 | < 100 | < 200 |  | 
13 | c1ccc(C(CNC2=Nc3ccccc3NC23CCNCC3)c2ccccc2)cc1 [N-220] | < 50 | 2000 to 5000 | < 50 | < 20 |  | 
14 | Clc1ccc(CNC2=Nc3ccccc3NC23CCOCC3)cc1Cl [O/S-345] | < 100 | 20000 to 50000 | < 100 | < 500 |  | 
15 | Cc1cccc(CNC2=Nc3cc(Cl)c(Cl)cc3NC23CCCCCC3)c1 [C-267] | < 100 | 10000 to 20000 | < 200 | < 500 |  | 
16 | Cc1cc(C)cc(CNC2=Nc3ccccc3NC23CCNCC3)c1 [N-217] | < 50 | 20000 to 50000 | < 100 | < 50 |  | 
17 | Fc1cc2c(cc1F)NC1(CCNCC1)C(NCc1ccccc1Cl)=N2 [N-259] | < 10 | 1000 to 2000 | < 50 | < 50 |  | 
18 | Clc1cc2c(cc1Cl)NC1(CCNCC1)C(NCc1ccccc1)=N2 [N-205] | < 20 | 1000 to 2000 | < 10 | < 50 |  | 
19 | CC(=O)N1CCC2(CC1)Nc1ccccc1N=C2NCc1cccc(Cl)c1 [N-99] | < 200 | 50000 to 100000 | < 1000 | < 1000 |  | 
20 | Clc1ccc(CNC2=Nc3ccccc3NC23CCNCC3)cc1 [N-3] | < 50 | 5000 to 10000 | < 10 | < 50 |  | 

Row | Structure (SMILES) | IC50 [1, 5] [nM] | CC50 [2] [nM] | IC50 [3] [nM] | IC50 [4, 6] [nM] | IC50 ([1]; BSO 50 μM, cell survival (AquaBluer), read-out: SH-SY5Y/BSO (Example B.1) IC50) [nM] | IC50 ([4]; glutamate 5 mM, 72 hours, cell survival, read-out: Ht22/GLU (Example B.2) IC50) [nM]
21 | c1ccc(CCNC2=Nc3ccccc3NC23CCSCC3)cc1 [O/S-368] | < 2000 | 20000 to 50000 | < 5000 | < 2000 |  | 
22 | Clc1ccccc1CNC1=Nc2ccccc2NC12CCOCC2 [O/S-1] | < 500 | 50000 to 100000 | < 1000 | < 1000 |  | 
23 | FC(F)(F)c1cccc(CNC2=Nc3cc(Cl)c(Cl)cc3NC23CCCCCC3)c1 [C-260] | < 50 | 5000 to 10000 | < 200 | < 500 |  | 
24 | Clc1cccc(CNC2=Nc3ccccc3NC23CCOCC3)c1 [O/S-2] | < 200 | 20000 to 50000 | < 500 | < 1000 |  | 
25 | Fc1cc2c(cc1F)NC1(CCNCC1)C(NCc1ccccc1)=N2 [N-223] | < 50 | 20000 to 50000 | < 50 | < 50 |  | 
26 | Clc1cccc(CNC2=Nc3ccccc3NC23CCCCCCC3)c1 [C-206] | < 50 | 5000 to 10000 | < 500 | < 500 |  | 
27 | FC1(F)Oc2cc3c(cc2O1)NC1(CCOCC1)C(NCc1ccccc1)=N3 [O/S-366] | < 50 | 20000 to 50000 | < 100 | < 100 |  | 
28 | CC1CN(C)CCC12Nc1ccccc1N=C2NCc1ccccc1 (centres unmarked) [N-256] | < 50 | 10000 to 20000 | < 500 | < 500 |  | 
29 | Fc1cc2c(cc1F)NC1(CCCCC1)C(NCc1cccc(Cl)c1)=N2 [C-137] | < 200 | 10000 to 20000 | < 200 | < 200 |  | 
30 | Fc1cccc(F)c1CNC1=Nc2ccccc2NC12CCNCC2 [N-231] | < 100 | 10000 to 20000 | < 50 | < 50 |  | 
31 | FC(F)(F)c1cccc(CNC2=Nc3cc(Cl)c(Cl)cc3NC23CCCCC3)c1 [C-264] | < 50 | 10000 to 20000 | < 500 | < 500 |  | 
32 | CC(=O)NC1CCC2(CC1)Nc1ccccc1N=C2NCc1ccccc1 (centres unmarked) [C-249] | < 1000 | 50000 to 100000 | < 5000 | < 5000 |  | 
33 | CN1CCC2(CC1)Nc1cc(Cl)c(Cl)cc1N=C2NCc1ccccc1 [N-230] | < 10 | 500 to 1000 | < 10 | < 10 |  | 
34 | Cc1cccc(CNC2=Nc3cc(Cl)c(Cl)cc3NC23CCOCC3)c1 [O/S-342] | < 100 | 20000 to 50000 | < 50 | < 500 |  | 
35 | Cc1cc2c(cc1C)NC1(CCNCC1)C(NCc1ccccc1)=N2 [N-210] | < 50 | 2000 to 5000 | < 10 | < 50 |  | 
36 | Fc1ccc(CNC2=Nc3cc(Cl)c(Cl)cc3NC23CCCCC3)c(F)c1 [C-265] | < 50 | 10000 to 20000 | < 500 | < 500 |  | 
37 | c1ccc(CNC2=Nc3ccccc3NC23CCCCC3)cc1 [C-215] | < 200 | 20000 to 50000 | < 1000 | < 1000 |  | 
38 | FC(F)(F)c1ccc2c(c1)N=C(NCc1ccccc1)C1(CCCCC1)N2 [C-259] | < 100 | 5000 to 10000 | < 500 | < 500 |  | 
39 | Cc1cc2c(cc1C)NC1(CCSCC1)C(NCc1ccccc1)=N2 [O/S-369] | < 50 | 10000 to 20000 | < 100 | < 200 |  | 
